Assay results taken from patent EP0269230A1, “Heterocyclic compounds” (priority 1986, dated 1988).
Converted amounts (≈) assume the structure as drawn.

Columns and labels:
[1] = system: Musca domestica (WRL strain); test: Topical application to unanaesthetised female Musca domestica; type: in vivo; settings: topical application in cellosolve; mortality assessed after 10 mins, 1 hr, 24 hrs and 48 hrs
Procedure: Mortality was assessed after 10 mins, 1 hr, 24 hrs and 48 hrs.

Myzus persicae = test: Lethal activity against insects, spray test on adult Myzus on chinese cabbage leaf disc; type: in vivo; settings: 10 adult Myzus on leaf disc sprayed, mortality after 2 days at 25°C
Procedure: (§1) The activity of the compounds of the invention was tested by dissolving the compounds in acetone (5%) and then diluting in water: "Symperonic" (94.5%:0.5%) to give a water emulsion. The solution was then used to treat the following insects: Musca domestica, Plutella xylostella, Myzus persicae and Tetranychus urticae.
10 adult Myzus were placed on a leaf disc of chinese cabbage. 24 hours later the disc was sprayed with the solution containing the compound. Mortality was assessed after 2 days at 25°C.

Musca domestica = test: Lethal activity against insects, spray test on female Musca domestica; type: in vivo; settings: sprayed onto 20 female Musca domestica, mortality after 48 hrs at 25°C
Procedure: as §1
20 Female Musca domestica were contained in a cardboard cyclinder with gauze over either end. A solution containing the compounds was sprayed onto the insects so enclosed and mortality assessed after 48 hrs at 25°C.

[2] = system: Coriolusversicolor, Coniophora putena, Aureobasidium pullulans and Chaetomium globosum; test: Antifungal testing, primary soft agar screen, inhibition of hyphae growth; type: cell-based; settings: fungus not specified per compound; for IC50: read-out: IC₅₀
Procedure: The antifungal activity of compounds of the invention was determined using a primary soft agar screen. The concentration dependent inhibition of hyphae growth was determined for Coriolusversicolor, Coniophora putena, Aureobasidium pullulans and Chaetomium globosum.

[3] = Mammalian toxicity, oral, mice; type: in vivo; settings: given orally to mice (Charles River CD1)
Procedure: 1-(2E)-6-Methoxyimino-3-methylhex-2-enyl-2-methylbenzimidazole and 1-geranyl-2,6,7-trimethylbenzimidazole have an LD₅₀ value of approximately 200 mg when given orally to mice (Charles River CD1).

Plutella xylostella = test: Lethal activity against insects, spray test on Plutella larvae on chinese cabbage leaf; type: in vivo; settings: 7 Plutella larvae and leaf sprayed, mortality after 2 days at 25°C
Procedure: as §1
7 Plutella larvae were sprayed with the solution containing the compound and added to a chinese cabbage leaf which had been similarly sprayed and left to dry. Mortality was assessed after 2-days at 25°C.

Tetranychus urticae = test: Lethal activity, spray test on infested french bean leaf discs; type: in vivo; settings: infested leaf discs sprayed, mortality after 2 days at 25°C
Procedure: as §1
Leaf discs of infested french bean were sprayed with the solution containing the compound. Mortality was assessed after 2 days at 25°C.

## 1-Geranyl-2-methyl-5(6)-nitrobenzimidazole
[1]
  LD₅₀: < 10 µg/fly
Myzus persicae
  active on Myzus persicae at 1000 ppm: active

## 1-Geranyl-5(6)-methoxy-2-methylbenzimidazole
Musca domestica
  active at 1000 ppm: active
[1]
  LD₅₀: < 10 µg/fly
Myzus persicae
  active on Myzus persicae at 1000 ppm: active
[2]
  IC₅₀: 30 ppm

## 5(6)-Chloro-geranyl-2-methylbenzimidazole
[2]
  IC₅₀: 30 ppm

## 5(6)-Ethoxy-1-geranyl-2-methyl-benzimidazole
[2]
  IC₅₀: 30 ppm

## CC(=CCn1c(C)nc2ccccc21)CCOC(C)C (mixture of isomers) [(E/Z)-1-(5-isopropoxy-3-methylpent-2-enyl)-2-methylbenzimidazole]
[1]
  LD₅₀: < 10 µg/fly

## C/C(=C\Cn1c(C)nc2ccccc21)CCC=C(Cl)Cl [1-, (2E)-7,7-Dichloro-3-methylhepta-2,6-dienyl,-2-methylbenzimidazole]
[2]
  IC50: 30 µg/mL (≈ 97 µM)

## CC(C)=CCC/C(C)=C/Cn1c(C)nc2c(C)cccc21 [1-Geranyl-2,4-dimethylbenzimidazole, 2,4-Dimethyl-1-geranylbenzimidazole]
Musca domestica
  active at 200 ppm: active
[1]
  LD₅₀: < 10 µg/fly
Myzus persicae
  active at 200 ppm: active
[2]
  IC50: 30 µg/mL (≈ 106 µM)

## CC(C)=CCC/C(C)=C/Cn1c(C)nc2cc(C)c(C)cc21 [1-Geranyl-2,5,6-trimethylbenzimidazole]
[2]
  IC50: 30 µg/mL (≈ 101 µM)

## CC(C)=CCC/C(C)=C/Cn1c(C)nc2ccc(C)c(C)c21 [1-Geranyl-2,6,7-trimethylbenzimidazole]
Musca domestica
  active at 1000 ppm: active
[1]
  LD₅₀: < 10 µg/fly
Myzus persicae
  active on Myzus persicae at 1000 ppm: active
[2]
  IC50: 30 µg/mL (≈ 101 µM)
[3]
  LD₅₀: approximately 200 mg

## CC(C)=CCC/C(C)=C/Cn1c(C)nc2c([N+](=O)[O-])cccc21 [1-Geranyl-2-methyl-4-nitrobenzimidazole]
Musca domestica
  active at 1000 ppm: active
[1]
  LD₅₀: < 10 µg/fly
Myzus persicae
  active at 200 ppm: active
[2]
  IC50: 30 µg/mL (≈ 95.7 µM)

## C=CCCC(C)=CCn1c(C)nc2ccccc21 [1-[3-Methylhepta-2,6-dienyl]-2-methylbenzimidazole]
[2]
  IC50: 30 µg/mL (≈ 125 µM)

## CON=CCC/C(C)=C/Cn1c(C)nc2ccccc21 [1-[(2E)-6-Methoxyimino-3-methylhex-2-enyl]-2-methybenzimidazole]
[1]
  LD₅₀: < 10 µg/fly
[3]
  LD₅₀: approximately 200 mg

## C=CCCC=CCn1c(C)nc2ccccc21 [1-[Hepta-2,6-dienyl]-2-methylbenzimidazole]
[2]
  IC50: 30 µg/mL (≈ 133 µM)

## CC(C)=CCC/C(C)=C/Cn1c(Cl)nc2ccccc21 [2-Chloro-1-geranylbenzimidazole]
Musca domestica
  active at 1000 ppm: active
[1]
  LD₅₀: < 10 µg/fly
Myzus persicae
  active on Myzus persicae at 1000 ppm: active

## C/C(=C\Cn1c(C)nc2ccccc21)CCC=NOCc1ccccc1 [2-Methyl-1-[(2E)-3-methyl-6-benzyloxyiminohex-2-enyl]benzimidazole]
[2]
  IC50: 30 µg/mL (≈ 86.3 µM)

## CC(C)=CCC/C(C)=C/Cn1c(C)nc2c(Cl)cc(Cl)cc21 [4(7),6(5)-Dichloro-1-geranyl-2-methylbenzimidazole]
[2]
  IC₅₀: 30 ppm

## CC(C)=CCC/C(C)=C/Cn1c(C)nc2c(N)cccc21 [4-Amino-1-geranyl-2-methylbenzimidazole]
Musca domestica
  active at 1000 ppm: active
[1]
  LD₅₀: < 10 µg/fly
[2]
  IC50: 30 µg/mL (≈ 106 µM)

## COC(C)(C)CCC/C(C)=C/Cn1c(C)nc2c(C)c(C)ccc21 [(2E)-1-(7-Methoxy-3,7-dimethyloct-2-enyl)-2,4,5-trimethylbenzimidazole]
Musca domestica
  active at 200 ppm: active
[1]
  LD₅₀: < 10 µg/fly
Plutella xylostella
  active at 1000 ppm: active
Myzus persicae
  active at 200 ppm: active

## COC(C)(C)CCC/C(C)=C/Cn1c(C)nc2c(C)cccc21 [(2E)-1-(7-Methoxy-3,7-dimethyloct-2-enyl)-2,4-dimethylbenzimidazole]
Musca domestica
  active at 200 ppm: active
[1]
  LD₅₀: < 10 µg/fly
Myzus persicae
  active at 200 ppm: active
Tetranychus urticae
  active against Tetranychus urticae at 200 ppm: active
[2]
  IC50: 30 µg/mL (≈ 95.4 µM)

## COC(C)(C)CCC/C(C)=C/Cn1c(C)nc2ccc(C)c(C)c21 [(2E)-1-(7-Methoxy-3,7-dimethyloct-2-enyl)-2,6,7-trimethylbenzimidazole]
[2]
  IC50: 30 µg/mL (≈ 91.3 µM)

## CC=CCC/C(C)=C/Cn1c(C)nc2ccccc21 [(2E)-2-Methyl-1-(3-methlocta-2,6-dienyl)benzimidazole]
[1]
  LD₅₀: < 10 µg/fly
[2]
  IC50: 30 µg/mL (≈ 118 µM)

## CC(C)=CCC/C(C)=C/CC/C(C)=C/Cn1c(C)nc2c(C)cccc21 [(2E,6E)-2,4-dimethyl-1-(3,7,11)-(trimethyldodeca-2,6,10-trienyl)benzimidazole]
[2]
  IC50: 30 µg/mL (≈ 85.6 µM)

## COc1ccc2c(c1)nc(C)n2C/C=C(\C)CC/C=C(\C)CCC=C(C)C [(2E,6E)-5-Methoxy-2-methyl-1-(3,7,11-trimethyldodeca-2,6,10-trienyl)benzimidazole]
[2]
  IC50: 30 µg/mL (≈ 81.8 µM)

## C/C(=C\Cn1c(C)nc2ccccc21)CCCC(C)(C)OC(=O)Nc1ccccc1 [(5E)-7-(2-Methylbenzimidazole-1-yl)-1,1,5-trimethylhept-5-enyl-N-phenyl-carbamate]
[1]
  LD₅₀: < 10 µg/fly
[2]
  IC50: 30 µg/mL (≈ 74 µM)

## COC(=O)c1cccc2nc(C)n(C/C=C(\C)CCC=C(C)C)c12 [Methyl 1-geranyl-2-methyl-benzimidazole-7-carboxylate]
[2]
  IC50: 30 µg/mL (≈ 91.9 µM)
